US7973080B2 (Ambria Dermatology AB, priority 2003, dated 2011)

Key:
male rabbits = settings: four male rabbits, skin sealed 24 hrs, highest tested dose 20 ml/kg, observed over a fortnight
Protocol: Topical administration. The penetration of rabbit skin was tested with a cuff model. The hair on the back of four male rabbits weighing from 2.5 to 3.5 kg was removed by shaving, the diol applied to the skin with a pipette, and the skin sealed with polyethylene film for 24 hrs. During the test period the animals were immobilised. After the exposure the animals were observed over a fortnight period.

Pseudomonas aeruginosa = assay: MIC by standard blood agar dilution technique
Source text: The following bacteria were investigated: methicillin-resistant Staphylococcus aureus (MSRA), fucidic acid-resistant S. aureus, non-resistant S. pyogenes, coagulation-negative staphylococci (for resistance, see Table 1 below) vancomycin-resistant enterococci (Enterococcus CCUG van A and van B), non-resistant Escherichia coli, Acinetobacter resistant against cefadroxil, nitrofurantin, mecillinam, Serratia maltophilia resistant against most types of antibiotics, Enterobacter (for resistance, see Table 1 below; additionally resistant against cefadroxil and nitrofurantin), non-resistant α-streptococci, non-resistant Streptococcus Group G, Pseudomonas aeruginosa (for resistance, see Table 2 below). Inocula of 10^3 and 10^5 bacteria were used.

`OCCCCCO` [pentane-1,5-diol] was tested, and the “survival after topical administration” value (male rabbits) was “the animals survived”, the “MIC (% by weight of pentane-1,5-diol)” value (Pseudomonas aeruginosa; P. aeruginosa 921 × 17701, inoculate size 10^3, MR cip +, tri +) was 5.0 % by weight and the “MIC (% by weight of pentane-1,5-diol)” value (Pseudomonas aeruginosa; P. aeruginosa 921 × 17748, inoculate size 10^3, MR cip −, tri +) was 5.0 % by weight. For the same compound, the “MIC (% by weight of pentane-1,5-diol)” value (Pseudomonas aeruginosa; P. aeruginosa 921 × 17756, inoculate size 10^3, MR cip +, tri +) was 5.0 % by weight, the “MIC (% by weight of pentane-1,5-diol)” value (Pseudomonas aeruginosa; P. aeruginosa 921 × 57855, inoculate size 10^5, MR van +, tri −) was 10.0 % by weight and the “MIC (% by weight of pentane-1,5-diol)” value (Pseudomonas aeruginosa; P. aeruginosa CCUG 17619, inoculate size 10^3) was 5.0 % by weight. The “MIC (% by weight of pentane-1,5-diol)” value (Pseudomonas aeruginosa; P. aeruginosa CCUG 17619, inoculate size 10^5) was 5.0 % by weight.
